One assay addresses DRB5*0101 (Homo sapiens, UniProt P01903+Q30154). The experiment in a line: biochemical. It counts as binding.
The next assay deals with DRB3*0101 (Homo sapiens, UniProt P01903+P79483). The experiment in a line: biochemical. It counts as binding.

As a reminder, the IC50 is the midpoint of a concentration-inhibition curve. A lower IC50 goes with greater potency.

The structures appear in SMILES notation.

In turn, `CC(C)C[C@H](NC(=O)[C@H](CC(=O)O)NC(=O)[C@H](Cc1ccccc1)NC(=O)[C@@H](N)Cc1ccccc1)C(=O)N1CCC[C@H]1C(=O)N[C@@H](CC(C)C)C(=O)N1CCC[C@H]1C(=O)N[C@@H](Cc1c[nH]c2ccccc12)C(=O)N[C@H](C(=O)N[C@@H](CO)C(=O)NCC(=O)N[C@@H](C)C(=O)N[C@H](C(=O)N[C@H](C(=O)N[C@@H](CCC(=O)O)C(=O)O)[C@@H](C)O)[C@@H](C)O)[C@@H](C)O` [Envelope 211-225] yielded an IC50 at DRB5*0101 of 16.2 µM. This lies in the double-digit micromolar range. `CC[C@H](C)[C@H](NC(=O)CNC(=O)[C@@H](NC(=O)[C@H](C)NC(=O)[C@@H](NC(=O)[C@H](CS)NC(=O)[C@@H](N)CO)[C@@H](C)CC)[C@@H](C)CC)C(=O)N[C@H](C(=O)N[C@H](C(=O)N[C@@H](CC(C)C)C(=O)N[C@@H](Cc1ccc(O)cc1)C(=O)N[C@@H](CC(C)C)C(=O)NCC(=O)N[C@@H](C)C(=O)N[C@H](C(=O)N[C@H](C(=O)N[C@@H](CCC(N)=O)C(=O)N[C@@H](C)C(=O)O)C(C)C)C(C)C)[C@@H](C)O)[C@@H](C)CC` [Envelope 476-493] came in with an IC50 against DRB3*0101 of 3.83 µM. For the compound `CC[C@H](C)[C@H](NC(=O)CNC(=O)[C@H](CO)NC(=O)CNC(=O)[C@H](CS)NC(=O)[C@H](CCCCN)NC(=O)[C@H](CC(C)C)NC(=O)[C@H](CCC(=O)O)NC(=O)[C@H](CCCCN)NC(=O)CNC(=O)[C@H](CCCCN)NC(=O)[C@H](Cc1c[nH]c2ccccc12)NC(=O)[C@H](CC(N)=O)NC(=O)[C@@H](NC(=O)[C@@H](N)C(C)C)[C@@H](C)CC)C(=O)O` [NS1 5-19], the results for the IC50 against DRB3*0101 and on DRB5*0101 were 6.3 µM and 15.8 µM, respectively. With `CC[C@H](C)[C@H](NC(=O)[C@@H](NC(=O)[C@H](Cc1ccccc1)NC(=O)[C@H](CO)NC(=O)[C@H](CO)NC(=O)[C@H](CC(N)=O)NC(=O)[C@H](CCC(N)=O)NC(=O)[C@@H](NC(=O)[C@H](CCC(=O)O)NC(=O)[C@H](C)NC(=O)[C@@H](NC(=O)[C@@H](NC(=O)[C@@H](NC(=O)[C@H](CCCCN)NC(=O)[C@H](C)N)[C@@H](C)CC)C(C)C)[C@@H](C)O)[C@@H](C)O)[C@@H](C)CC)C(=O)O` [NS1 121-135], the values for the IC50 against DRB3*0101 and against DRB5*0101 were 1.24 µM and 9.46 µM, respectively. At DRB5*0101, `CC[C@H](C)[C@H](NC(=O)[C@@H](NC(=O)[C@@H](N)Cc1ccccc1)[C@@H](C)CC)C(=O)N[C@@H](CC(=O)O)C(=O)NCC(=O)N1CCC[C@H]1C(=O)N[C@@H](CC(N)=O)C(=O)N[C@H](C(=O)N1CCC[C@H]1C(=O)N[C@@H](CCC(=O)O)C(=O)N[C@@H](CS)C(=O)N1CCC[C@H]1C(=O)N[C@@H](CO)C(=O)N[C@@H](C)C(=O)N[C@@H](CO)C(=O)O)[C@@H](C)O` [NS1 133-147] displayed an IC50 of 6.91 µM. That is a single-digit micromolar value. For `CC[C@H](C)[C@H](NC(=O)[C@@H]1CCCN1C(=O)CNC(=O)[C@H](C)NC(=O)[C@H](CC(C)C)NC(=O)[C@H](CO)NC(=O)[C@H](CCCCN)NC(=O)[C@@H]1CCCN1C(=O)[C@@H](NC(=O)[C@@H](NC(=O)[C@H](CCSC)NC(=O)[C@H](CC(=O)O)NC(=O)[C@H](CO)NC(=O)[C@H](CCC(=O)O)NC(=O)[C@@H](N)CC(C)C)[C@@H](C)CC)[C@@H](C)CC)C(=O)O` [NS1 237-251], the IC50 worked out at 2.71 µM against DRB3*0101 and 14.8 µM on DRB5*0101. For `CC(C)C[C@H](NC(=O)[C@H](CCCNC(=N)N)NC(=O)[C@H](CCCCN)NC(=O)CNC(=O)[C@H](CC(N)=O)NC(=O)[C@H](Cc1ccc(O)cc1)NC(=O)[C@@H](NC(=O)[C@H](CC(C)C)NC(=O)[C@@H](N)C(C)C)[C@@H](C)O)C(=O)N[C@@H](CCC(=O)O)C(=O)N1CCC[C@H]1C(=O)N[C@@H](CC(N)=O)C(=O)N[C@@H](Cc1c[nH]c2ccccc12)C(=O)N[C@@H](C)C(=O)N[C@@H](CO)C(=O)O` [NS3 57-71] the same measures were 5.43 µM and 3.76 µM. As to `CSCC[C@H](NC(=O)[C@@H](NC(=O)[C@H](CCC(N)=O)NC(=O)[C@H](Cc1ccccc1)NC(=O)[C@H](CC(N)=O)NC(=O)[C@H](CCCCN)NC(=O)[C@@H]1CCCN1C(=O)[C@H](CC(N)=O)NC(=O)[C@H](CCCCN)NC(=O)CNC(=O)[C@@H]1CCCN1C(=O)[C@@H](N)CCC(=O)O)[C@@H](C)O)C(=O)N1CCC[C@H]1C(=O)NCC(=O)N[C@H](C(=O)O)[C@@H](C)O` [NS3 101-115], the figures for the IC50 at DRB3*0101 and on DRB5*0101 were 4.12 µM and 1.08 µM, respectively. For `CC[C@H](C)[C@H](NC(=O)[C@@H]1CCCN1C(=O)[C@H](CO)NC(=O)CNC(=O)[C@H](CO)NC(=O)[C@@H](NC(=O)CNC(=O)[C@@H]1CCCN1C(=O)[C@H](CCCCN)NC(=O)[C@H](Cc1ccccc1)NC(=O)[C@H](CC(=O)O)NC(=O)[C@H](CC(C)C)NC(=O)[C@H](C)NC(=O)[C@@H](NC(=O)[C@H](C)N)[C@@H](C)CC)[C@@H](C)O)C(=O)O` [NS3 125-139] the same measures were 9.22 µM and 4.35 µM. As for `CC[C@H](C)[C@H](NC(=O)[C@@H](NC(=O)[C@@H]1CCCN1C(=O)[C@@H](N)CO)[C@@H](C)CC)C(=O)N[C@@H](CC(N)=O)C(=O)N[C@@H](CCCNC(=N)N)C(=O)N[C@@H](CCC(=O)O)C(=O)NCC(=O)N[C@@H](CCCCN)C(=O)N[C@H](C(=O)N[C@H](C(=O)NCC(=O)N[C@@H](CC(C)C)C(=O)N[C@@H](Cc1ccc(O)cc1)C(=O)NCC(=O)O)C(C)C)C(C)C` [NS3 137-151], the IC50 against DRB3*0101 was 9.58 µM; at DRB5*0101, 1.68 µM.

As to `CC[C@H](C)[C@H](NC(=O)[C@@H](NC(=O)[C@H](CC(C)C)NC(=O)[C@H](CC(N)=O)NC(=O)[C@H](CCCNC(=N)N)NC(=O)[C@H](CCCCN)NC(=O)[C@H](CCCCN)NC(=O)[C@H](Cc1ccccc1)NC(=O)[C@H](CCSC)NC(=O)[C@H](CCC(=O)O)NC(=O)[C@H](CCC(=O)O)NC(=O)[C@H](CCC(=O)O)NC(=O)[C@H](CC(C)C)NC(=O)[C@H](CCC(=O)O)NC(=O)[C@@H]1CCCN1)[C@@H](C)O)C(=O)O` [NS3 177-191], half-maximal inhibition on DRB3*0101 (IC50) required 10.7 µM. `CC[C@H](C)[C@H](NC(=O)[C@H](CO)NC(=O)[C@@H]1CCCN1C(=O)[C@@H](NC(=O)[C@H](Cc1ccccc1)NC(=O)[C@H](Cc1c[nH]c2ccccc12)NC(=O)[C@@H](NC(=O)[C@@H](NC(=O)[C@H](CCCCN)NC(=O)CN)[C@@H](C)O)C(C)C)C(C)C)C(=O)N[C@@H](CCCCN)C(=O)N[C@@H](C)C(=O)NCC(=O)N[C@@H](CC(N)=O)C(=O)N[C@@H](CC(=O)O)C(=O)O` [NS3 357-371] had an IC50 on DRB5*0101 of 0.273 µM. `CC[C@H](C)[C@H](NC(=O)[C@H](CC(=O)O)NC(=O)[C@@H](NC(=O)[C@@H](NC(=O)[C@@H](NC(=O)[C@@H](NC(=O)[C@@H](N)Cc1ccccc1)C(C)C)C(C)C)[C@@H](C)O)[C@@H](C)O)C(=O)N[C@@H](CO)C(=O)N[C@@H](CCC(=O)O)C(=O)N[C@@H](CCSC)C(=O)NCC(=O)N[C@@H](C)C(=O)N[C@@H](CC(N)=O)C(=O)N[C@@H](Cc1ccccc1)C(=O)N[C@@H](CCCCN)C(=O)O` [NS3 405-419] displayed an IC50 against DRB3*0101 of 1.59 µM. As to `CC[C@H](C)[C@H](NC(=O)[C@@H](NC(=O)[C@H](CCCNC(=N)N)NC(=O)[C@H](CC(=O)O)NC(=O)[C@H](C)NC(=O)[C@H](CCCCN)NC(=O)[C@H](Cc1ccccc1)NC(=O)[C@@H](N)CC(N)=O)C(C)C)C(=O)N[C@@H](CC(=O)O)C(=O)N1CCC[C@H]1C(=O)N[C@@H](CCCNC(=N)N)C(=O)N[C@@H](CCCNC(=N)N)C(=O)N[C@@H](CS)C(=O)N[C@@H](CC(C)C)C(=O)N[C@@H](CCCCN)C(=O)O` [NS3 417-431], on DRB3*0101, the IC50 came to 0.632 µM. Against the preceding compound, the IC50 is about 2.5-fold lower.

Take `CC[C@H](C)[C@H](NC(=O)[C@H](Cc1ccc(O)cc1)NC(=O)[C@H](CCC(N)=O)NC(=O)[C@H](CC(=O)O)NC(=O)[C@H](CC(N)=O)NC(=O)[C@H](CCC(=O)O)NC(=O)[C@H](CCCCN)NC(=O)[C@H](CCC(N)=O)NC(=O)[C@@H]1CCCN1C(=O)[C@@H](N)CC(N)=O)C(=O)N[C@@H](Cc1ccccc1)C(=O)N[C@H](C(=O)NCC(=O)N[C@@H](CCC(N)=O)C(=O)N1CCC[C@H]1C(=O)O)[C@@H](C)O` [NS3 465-479]: inhibition at DRB3*0101 was half-maximal at 10.6 µM (IC50). Still for that read-out and setting: the figure for `CC[C@H](C)[C@H](NC(=O)CNC(=O)[C@H](CO)NC(=O)[C@H](CCCCN)NC(=O)[C@@H](N)CCCCN)C(=O)N[C@H](C(=O)N[C@@H](CCC(=O)O)C(=O)N[C@H](C(=O)N[C@@H](CC(=O)O)C(=O)N[C@@H](CCCNC(=N)N)C(=O)N[C@H](C(=O)N[C@@H](CCC(=O)O)C(=O)N[C@@H](C)C(=O)N[C@@H](CCCCN)C(=O)N[C@@H](CCC(=O)O)C(=O)NCC(=O)N[C@@H](CC(C)C)C(=O)O)[C@@H](C)O)C(C)C)[C@@H](C)O` [NS5 29-45] is 5.38 µM. `CC[C@H](C)[C@H](NC(=O)[C@H](CS)NC(=O)[C@H](Cc1ccccc1)NC(=O)[C@H](CCC(N)=O)NC(=O)[C@H](CC(N)=O)NC(=O)[C@H](CC(N)=O)NC(=O)[C@H](CCCCN)NC(=O)[C@H](CC(C)C)NC(=O)[C@H](Cc1c[nH]c2ccccc12)NC(=O)[C@@H]1CCCN1C(=O)[C@H](CCC(=O)O)NC(=O)[C@@H](NC(=O)[C@H](CCSC)NC(=O)[C@H](CCCCN)NC(=O)[C@@H](N)CC(C)C)C(C)C)C(=O)N[C@@H](CCCCN)C(=O)N[C@H](C(=O)O)C(C)C` [NS5 165-181] showed an IC50 on DRB5*0101 of 0.02 µM. This lies in the double-digit nanomolar range. Compound `CSCC[C@H](NC(=O)[C@H](C)NC(=O)[C@H](CCSC)NC(=O)[C@H](CCC(N)=O)NC(=O)[C@@H](NC(=O)[C@@H](NC(=O)[C@H](CCSC)NC(=O)[C@@H]1CCCN1C(=O)[C@@H](NC(=O)[C@@H](NC(=O)[C@H](CC(=O)O)NC(=O)[C@H](Cc1c[nH]c2ccccc12)NC(=O)[C@@H]1CCCN1)C(C)C)C(C)C)C(C)C)[C@@H](C)O)C(=O)N[C@H](C(=O)N[C@@H](CC(=O)O)C(=O)N[C@H](C(=O)N[C@H](C(=O)O)[C@@H](C)O)[C@@H](C)O)[C@@H](C)O` [NS5 330-346] registered an IC50 against DRB5*0101 of 1.04 µM. In turn, `CC[C@H](C)[C@H](NC(=O)[C@@H]1CCCN1C(=O)[C@H](CCCCN)NC(=O)[C@@H](NC(=O)[C@@H](NC(=O)[C@H](CS)NC(=O)[C@@H](N)CC(=O)O)C(C)C)C(C)C)C(=O)N[C@@H](CC(=O)O)C(=O)N[C@@H](CC(=O)O)C(=O)N[C@@H](CCCNC(=N)N)C(=O)N[C@@H](Cc1ccccc1)C(=O)N[C@@H](C)C(=O)N[C@@H](CC(N)=O)C(=O)N[C@@H](C)C(=O)N[C@@H](CC(C)C)C(=O)N[C@@H](CC(C)C)C(=O)N[C@@H](C)C(=O)O` [NS5 664-680] showed an IC50 against DRB3*0101 of 4.09 µM.

Source of the values: article PMC3794980, “Identification of Conserved and HLA Promiscuous DENV3 T-Cell Epitopes” (PLoS Neglected Tropical Diseases, 2013).
